Measured values published in patent US7867948B2, “Use of guanidine compounds as physiological strengthening agents in the form of nutritional supplements, animal feed additives, in cosmetic preparations and as plant stimulants” (Alzchem Trostberg GmbH, priority 2004, dated 2011).

Key:
rats = conditions: experiments of GB 1 468 998; cited from earlier work
[1] = test system: chickens raised for market; test: Feed for chickens raised for market (feed additive trial); format: in vivo; parameters: dose or concentration left out as unconfirmed; conditions: 0.2 wt.-% added to air-dried food
Protocol: 2. Animal Feed Additive • 2.1 A formulation consisting of 5,000 mg creatinol-O -phosphate and 5,000 mg inulin was added to a typical formula for feed pellets as a food supplement for horses. • 2.2 A formulation consisting of 7,000 mg creatinol sulfate, 750 mg carnitine tartrate, 100 mg sucrose stearate, 160 mg talc, and 1,090 mg fructose was added to the base mixture for making dog biscuits. • 2.3 As a master batch, the following formulation was added to a regular commercial canned cat food mixture: 3,000 mg creatinol sulfate, 3,000 mg creatine, 40 mg magnesium stearate, 25 mg carboxymethylcellulose and 135 mg lactose. • 2.4 Feed for chickens raised for market
In addition the feed consumption was about 2 to 3% less than in former feeding methods.

[2] = after administration; Arzneimittelforschung 1979, 29 (9A) 1477-79; cited from earlier work

| SMILES | swimming activity increased (rats) | meat quality ([1]; 41 days feeding time) | increase in the final weight versus former feeding methods without addition of creatinol ([1]; after 41 days feeding time) | creatinine levels in the urine [2] |
| --- | --- | --- | --- | --- |
| CN(CCO)C(=N)N.NC(CC(=O)O)C(=O)O (stereo not shown) [creatinol aspartate] | 30% |  |  |  |
| CN(CCOP(=O)(O)O)C(=N)N [creatinol-O-phosphate] |  | improved quality | 4% | increase |
